Among the test systems are SNB-19; SF-539; SNB-78; HL-60; HCC 2998; NCI-H522; NCI-H23; HCT-15; SN12C; TK-10; RXF 393; UO-31; HOP-62; M14; HOP-92; NCI-H226.
Common to all, as to test: growth of human tumour cells (NCI), 48 h

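Compound exposure: 48 hours, 5 concentrations, 96-well plates. Abbreviation: GI50, concentration required for 50% inhibition of growth.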 Active and inactive are the calls of the source. Cut-off read from the data, not from the text of the source: active = GI50 up to about 1.1 µM and inactive = higher.

`O=C1c2ccc(O)cc2C(=O)c2ccc(O)cc21`: the GI50 is 78.9 µM (inactive) with SNB-19; 40.9 µM (inactive) in the assay with SF-539; > 100 µM (inactive) in the assay with SNB-78; 70.5 µM (inactive) in the assay on HL-60; 46.3 µM (inactive) in the assay on HCC 2998; 32.6 µM (inactive) with NCI-H522. In addition, the GI50 is 59.2 µM (inactive) in the assay on NCI-H23; 52.5 µM in the assay on HCT-15; 73.5 µM (inactive) in the assay on SN12C; 61.8 µM (inactive) in the assay with TK-10; 29.9 µM (inactive) in the assay on RXF 393; 24.3 µM (inactive) with UO-31. For the same molecule, the results for the GI50 in the assay with HOP-62, in the assay with M14 and with HOP-92 were 30.6 µM (inactive), 58.9 µM (inactive) and 63.1 µM (inactive), respectively.

`Cc1cc2c(C)nn(Cc3ccccc3)c2c(C(=O)O)c1C`: the GI50 in the assay on SNB-19, in the assay with SF-539, with SNB-78, with HL-60, with HCC 2998 and in the assay on NCI-H226 was > 100 µM (inactive) throughout. Further, the GI50 in the assay on NCI-H23 was > 100 µM (inactive); in the assay with HCT-15, above 100 µM; with SN12C it was > 100 µM (inactive); with TK-10, > 100 µM (inactive); in the assay with RXF 393, > 100 µM (inactive); in the assay with UO-31, > 100 µM (inactive). Further, the GI50 in the assay with HOP-62 and in the assay with HOP-92 was > 100 µM (inactive) in each case.

With `C/C(=N/NC(=O)c1ccccc1O)c1ccc(/C(C)=N\NC(=O)c2ccccc2O)c2nc3cc(C)c(C)cc3nc12`, the GI50 in the assay with SNB-19, in the assay on SF-539, in the assay on SNB-78, in the assay with HCC 2998, with NCI-H522 and with NCI-H226 was > 100 µM (inactive) throughout. For the same molecule, the GI50 in the assay with NCI-H23 is > 100 µM (inactive); in the assay with HCT-15, above 100 µM; with SN12C it was > 100 µM (inactive); in the assay with TK-10 it was > 100 µM (inactive); with RXF 393, > 100 µM (inactive); in the assay on UO-31 it was > 100 µM (inactive). In addition, the GI50 in the assay with HOP-62 was > 100 µM (inactive); with M14, > 100 µM (inactive); with HOP-92, 54.7 µM (inactive).

For `Cc1cc2c(c(N)c1C)C(=O)c1ccccc1C2=O`, the GI50 is 27.9 µM (inactive) in the assay with SNB-19; 12.5 µM (inactive) with SF-539; > 100 µM (inactive) in the assay on SNB-78; > 100 µM (inactive) in the assay on HL-60; 40.6 µM (inactive) with HCC 2998; 21.7 µM (inactive) with NCI-H522. The GI50 in the assay with HCT-15 is 45.8 µM; in the assay with SN12C, 49.1 µM (inactive); in the assay with TK-10, 37.5 µM (inactive); with RXF 393, 29 µM (inactive); in the assay on UO-31 it was 10.6 µM (inactive); in the assay with HOP-62, 13.9 µM (inactive). Also, the figures for the GI50 in the assay on M14 and with HOP-92 were 29.2 µM (inactive) and 18 µM (inactive), respectively.

With `c1ccc(C2C3=C(Nc4ncnn42)c2ccccc2C3)cc1` (stereo not drawn), the GI50 with SNB-19 was 14.9 µM (inactive); in the assay on SF-539, 11.4 µM (inactive); in the assay on SNB-78, > 100 µM (inactive); in the assay with HL-60 it was 5.07 µM (inactive); in the assay on HCC 2998 it was 8.15 µM (inactive); with NCI-H522 it was 6.14 µM (inactive). The GI50 was 15 µM (inactive) with NCI-H23; 20.1 µM with HCT-15; 35.3 µM (inactive) with SN12C; 35 µM (inactive) in the assay on TK-10; 21.1 µM (inactive) in the assay with RXF 393; 48.2 µM (inactive) in the assay on UO-31. The GI50 with HOP-62 was 31.7 µM (inactive); in the assay with M14, 5.38 µM (inactive); in the assay with HOP-92, 21.8 µM (inactive).
